Test results published in patent US20170176446A1, “Methods for Determining the Oncogenic Condition of Cell, Uses Thereof, and Methods for Treating Cancer” (INSERM (INSTITUT NATIONAL DE LA SANTE ET DE LA RECHERCHE …, priority 2009, published 2017).

Key:
HeLa = test: Inhibition of OCDO production by PBPE in HeLa; assay type: cell-based; settings: Homo sapiens, 40 μM PBPE, 48 hours
Protocol: (§1) An analogous experiment was reproduced with different cell lines, with the cells tested being incubated for 48 hours in a 40 μM solution of PBPE. It was noted that the OCDO was 100% inhibited for all the lines in the following table that were tested:
(§2) Generally, in order to establish the percentages of OCDO inhibition from the thin-layer chromatography (TLC) plates obtained as in assay 2, the radioactive metabolites are identified and quantified on the basis of said plates using a europium-sensitive plate of GP Phosphor screen type (GE Healthcare) and a Storm 840 phosphorimagor (GE Healthcare). The proportion of radiolabeled oxysterols is determined on the autoradiogram obtained by densitometry using the Image Quant 5.2 software. The percentage is calculated on the basis of the ratio between the amount of oxysterols quantified divided by the sum of the amounts of oxysterols (CEE+CE+CT+OCDO). Since the CEE (CE ester) originates exclusively from the CE, the percentage CE is calculated on the basis of the ratio (CE+CEE)/(CE+CEE+CT+OCDO).

C6 = test: Inhibition of OCDO production by PBPE in C6; assay type: cell-based; settings: Rattus norvegicus, 40 μM PBPE, 48 hours
Protocol: as §1, §2

HT-29 = test: Inhibition of OCDO production by PBPE in HT-29; assay type: cell-based; settings: Homo sapiens, 40 μM PBPE, 48 hours
Protocol: as §1, §2

OCDO = OCDO content of TS/A tumors by GC/MS; assay type: in vivo, mice; settings: PBPE 40 μM, 100 μl intratumorally once a day
Protocol: 5 volumes (relative to the mass removed) of buffer (50 mM Tris-HCl, 150 mM KCl, pH=7.4) are added. The tumors are ground and the homogenates are centrifuged for 5 minutes at 2500 rpm at 4° C. […] After centrifugation (to separate the phases), the organic phase is recovered. The organic phase is evaporated to dryness and then the residue is taken up with 0.5 ml of chloroform. The organic extracts are filtered on 0.5 ml silica cartridges. The polar sterols are eluted sequentially:
1) 0.5 ml of a hexane/chloroform mixture (1/1), 2) 0.5 ml of chloroform, 3) 0.5 ml of ethyl acetate and methanol.
The ethyl acetate fractions are evaporated, silylated (50 μl 1/1 acetonitrile/BSTFA) and then analyzed by GC/MS (2 μl) according to the conditions described above.

MDA-MB-231 = test: Inhibition of OCDO production by PBPE in MDA-MB-231; assay type: cell-based; settings: Homo sapiens, 40 μM PBPE, 48 hours
Protocol: as §1, §2

MCF7 cells = test: OCDO production by MCF7 cells incubated with [14C]CE, thin-layer chromatography; assay type: cell-based, human
In short: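 MCF7 cells incubated with [14C]CE; lipids extracted, separated by silica TLC in ethyl acetate and quantified by phosphorimager densitometry. OCDO inhibition came from oxysterol proportions, OCDO over CEE+CE+CT+OCDO.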

TS/A cells = test: Tumor size of TS/A tumors implanted in BALB/c mice, intratumoral treatment; assay type: in vivo; settings: PBPE 40 μM, 100 μl intratumorally once a day
Protocol: A cell culture of TS/A cells was first performed. These TS/A cells are mouse mammary adenocarcinomas (see Nanni P et al., Clin. Exp. Metastasis, 1983 October-December; 1(4): 373-80). The cells are cultured, at 37° C. under 5% CO2, in a DMEM medium supplemented with 2 g/liter of sodium carbonate, 1.2 mM of glutamine (pH 7.4 at 23° C.), 5% of fetal bovine serum (Gibco) and 2.5 ml of antibiotics per liter of medium (penicillin/streptomycin).
The TS/A cells are recovered with trypsin, washed twice and suspended in PBS buffer. The TS/A cells (approximately 4×10^6 […] cells/0.1 ml) are then injected subcutaneously into the flank of 6-week-old female BALB/c mice (supplied by Charles River). […] The animals (10 mice per group) are monitored regularly for tumor development. The volume of the tumors is calculated according to the following formula: L×l^2×0.5 (L is the length and l is the width of the tumor). The experiment was reproduced twice. The results are given in FIG. 18 (the arrow indicates the beginning of the treatment).

U-937 = test: Inhibition of OCDO production by PBPE in U-937; assay type: cell-based; settings: Homo sapiens, 40 μM PBPE, 48 hours
Protocol: as §1, §2

TT = test: Inhibition of OCDO production by PBPE in TT; assay type: cell-based; settings: Homo sapiens, 48 h, read-out: Inhibition of OCDO production
Protocol: as §1, §2

Saos-2 = test: Inhibition of OCDO production by PBPE in Saos-2; assay type: cell-based; settings: Homo sapiens, 40 μM PBPE, 48 hours
Protocol: as §1, §2

B-16-F10 = test: Inhibition of OCDO production by PBPE in B-16-F10; assay type: cell-based, murine; settings: Mus musculus, B16-F10, 40 μM PBPE, 48 hours
Protocol: as §1, §2

P19 = test: Inhibition of OCDO production by PBPE in P19; assay type: cell-based, murine; settings: Mus musculus, 40 μM PBPE, 48 hours
Protocol: as §1, §2

[1] = MCF7 cells, [14C]CEα, three days, concentration given with each compound, share of labeled oxysterols

With c1ccc(Cc2ccc(OCCN3CCCC3)cc2)cc1 [PBPE, N,N-pyrrolidino-[(4-benzyl)phenoxy]ethanamine] as the compound, how does the inhibition at 40 µM (HeLa) read?
Its inhibition at 40 µM is 100%.

And the inhibition at 40 µM (C6)?
Its inhibition at 40 µM is 100%.

What about the inhibition at 40 µM (HT-29) of the same compound?
Its inhibition at 40 µM is 100%.

And the “OCDO (% control)” value (OCDO; Day 28)?
Its value is 22.5 ± 5 % control.

What about the “OCDO (% control)” value (OCDO; Day 37) of the same compound?
Its value is 9.6 ± 5 % control.

What about the inhibition at 40 µM (MDA-MB-231) of the same compound?
Its inhibition at 40 µM is 100%.

What about the inhibition at 40 µM (MCF7 cells; Homo sapiens, MCF7, MCF-7, 40 μM PBPE, 48 hours) of the same compound?
Its inhibition at 40 µM is 100%.

What about the “% CE” value (MCF7 cells; [1]) of the same compound?
Its value is 89.2%.

What about the “% CT” value (MCF7 cells; [1]) of the same compound?
Its value is 4.6%.

What about the “% OCDO” value (MCF7 cells; [1]) of the same compound?
Its value is 6.2%.

And the “OCDO production by MCF-7 (% control)” value (MCF7 cells; concentration in μM in parentheses after each molecule, control = 100)?
Its value is under 1 % control.

What about the “Tumor size (% control)” value (TS/A cells; Day 28) of the same compound?
Its value is 71.6 ± 7 % control.

And the “Tumor size (% control)” value (TS/A cells; Day 37)?
Its value is 54.5 ± 8 % control.

What about the inhibition at 40 µM (U-937) of the same compound?
The inhibition at 40 µM was 100%.

What about the inhibition at 40 µM (TT) of the same compound?
Its inhibition at 40 µM is 100%.

And the inhibition at 40 µM (Saos-2)?
The inhibition at 40 µM was 100%.

What about the inhibition at 40 µM (B-16-F10) of the same compound?
The inhibition at 40 µM was 100%.

What about the inhibition at 40 µM (P19) of the same compound?
The inhibition at 40 µM was 100%.
